Measurements: PMC11170711, “Pharmacophore Virtual Screening Identifies Riboflavin as an Inhibitor of the Schistosome Cathepsin B1 Protease with Antiparasitic Activity” (ACS Omega, 2024)

Target: T1, human cathepsin B (Homo sapiens, UniProt P07858)
T1 construct: gene CTSB
Experiment: fluorogenic Z-RR-AMC hydrolysis assay with recombinant enzyme, without and with […] Triton X-[…] with detergent
Assay type: biochemical

Cc1cc2nc3c(=O)[nH]c(=O)nc-3n(C[C@H](O)[C@H](O)[C@H](O)CO)c2cc1C [RBF, riboflavin]
IC50: 12.1 ± 1.86 µM
